Experimental data from ChEMBL document CHEMBL1201862, “PubChem BioAssay data set” (2004).
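Results reflect a 48-hour exposure of cells in 96-well plates to compound at five concentrations. At the GI50, growth is halved.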 Active and inactive are the calls of the source. Rule as the data show it: active = GI50 up to about 1.1 µM and inactive = higher.

Assays:
Experiment in all cases: NCI anticancer screen, dose series, 48 h
[1] = system: HCT-116
[2] = system: COLO 205
[3] = system: OVCAR-4
[4] = system: SR
[5] = system: CCRF-CEM
[6] = system: SNB-78
[7] = system: KM12
[8] = system: EKVX
[9] = system: UACC-62
[10] = system: LOX IMVI
[11] = system: UACC-257
[12] = system: MOLT-4
[13] = system: TK-10
[14] = system: ACHN
[15] = system: SNB-19
[16] = system: HCT-15
[17] = system: DU-145
[18] = system: Hs-578T
[19] = system: NCI/ADR-RES
[20] = system: BT-549

Row | SMILES | GI50 [1] | GI50 [2] | GI50 [3] | GI50 [4] | GI50 [5] | GI50 [6] | GI50 [7] | GI50 [8] | GI50 [9] | GI50 [10] | GI50 [11] | GI50 [12] | GI50 [13] | GI50 [14] | GI50 [15] | GI50 [16] [µM] | GI50 [17] | GI50 [18] | GI50 [19] | GI50 [20]
1 | O=c1[nH]c(=O)n(C2OC(CO)C(N(O)Cc3ccc(F)cc3)C2O)cc1Br (centres undefined) | > 100 µM (inactive) | > 100 µM (inactive) | > 100 µM (inactive) | > 100 µM (inactive) | > 100 µM (inactive) | > 100 µM (inactive) | > 100 µM (inactive) | > 100 µM (inactive) | > 100 µM (inactive) | > 100 µM (inactive) | > 100 µM (inactive) | > 100 µM (inactive) | > 100 µM (inactive) | > 100 µM (inactive) | > 100 µM (inactive) |  |  |  |  | 
2 | c1cnc2c3[nH]cc4[nH]c5ccccc5c4c-3nc2c1 | 44.7 µM (inactive) | 54.7 µM (inactive) | 44 µM (inactive) |  | 24.2 µM (inactive) | > 100 µM (inactive) | 36.1 µM (inactive) | > 100 µM (inactive) | > 100 µM (inactive) | 52.5 µM (inactive) | > 100 µM (inactive) | 22.7 µM (inactive) | > 100 µM (inactive) | 61.4 µM (inactive) | > 100 µM (inactive) | 67.5 |  |  |  | 
3 | O=C1c2ccccc2C(=O)N1C/C=N/NS(=O)(=O)c1ccc(Br)cc1 | > 100 µM (inactive) | > 100 µM (inactive) | > 100 µM (inactive) | > 100 µM (inactive) | > 100 µM (inactive) | > 100 µM (inactive) | > 100 µM (inactive) | > 100 µM (inactive) | > 100 µM (inactive) |  | > 100 µM (inactive) | > 100 µM (inactive) | > 100 µM (inactive) | > 100 µM (inactive) | > 100 µM (inactive) | > 100 |  |  |  | 
4 | Fc1cccc(C2SCc3nc4ccccc4n32)c1 (centres undefined) | 45.9 µM (inactive) | 71.4 µM (inactive) |  | 35.6 µM (inactive) | 41.2 µM (inactive) | 30.6 µM (inactive) | 39.1 µM (inactive) | 32.4 µM (inactive) | 40.1 µM (inactive) |  | 17.6 µM (inactive) | 33.8 µM (inactive) | > 10 µM (inactive) | 24.4 µM (inactive) | 75.5 µM (inactive) |  |  |  |  | 
5 | Cc1ccc2sc3cc(=O)cc(C)c-3nc2c1 | 80.2 µM (inactive) | 61.9 µM (inactive) | 14.2 µM (inactive) | 28.8 µM (inactive) | 17.8 µM (inactive) | > 100 µM (inactive) | 49.7 µM (inactive) | 38.6 µM (inactive) | 14.3 µM (inactive) |  | 74.3 µM (inactive) | 15.7 µM (inactive) | > 100 µM (inactive) | 29.2 µM (inactive) | 40.8 µM (inactive) | 40.2 |  |  |  | 
6 | Cc1cc(Cl)ccc1NC(=O)C(=O)Cc1nc2ccccc2o1 |  | > 100 µM (inactive) | > 100 µM (inactive) |  | > 100 µM (inactive) | > 100 µM (inactive) | > 100 µM (inactive) | > 100 µM (inactive) | > 100 µM (inactive) | > 100 µM (inactive) | > 100 µM (inactive) | > 100 µM (inactive) | > 100 µM (inactive) | > 100 µM (inactive) | > 100 µM (inactive) | > 100 |  |  |  | 
7 | Cc1cccc(-c2nc3c(C(=O)NCCN(C)C)cccc3[nH]2)c1 | 0.329 µM (active) | 0.363 µM (active) | 0.809 µM (active) |  | 1.02 µM (active) | 3.49 µM (inactive) | 0.944 µM (active) | 1.46 µM (inactive) | 1.8 µM (inactive) | 0.708 µM (active) | 1.67 µM (inactive) | 0.406 µM (active) | 1.37 µM (inactive) | 2.26 µM (inactive) | 1.98 µM (inactive) | 0.414 |  |  |  | 
8 | COc1ccc2c(c1)OC[C@@H]1c3cc4c(cc3O[C@H]21)OCO4 | > 100 µM (inactive) | > 100 µM (inactive) | 35.7 µM (inactive) |  | > 100 µM (inactive) | > 100 µM (inactive) | > 100 µM (inactive) | > 100 µM (inactive) |  | > 100 µM (inactive) |  | > 100 µM (inactive) | > 100 µM (inactive) | > 100 µM (inactive) | 30.4 µM (inactive) | > 100 |  |  |  | 
9 | O=C1/C(=N\O)C2CCC1C2 (centres undefined) | > 100 µM (inactive) | > 100 µM (inactive) | > 100 µM (inactive) |  | > 100 µM (inactive) | > 100 µM (inactive) | > 100 µM (inactive) | > 100 µM (inactive) | > 100 µM (inactive) | > 100 µM (inactive) | > 100 µM (inactive) | > 100 µM (inactive) | > 100 µM (inactive) | > 100 µM (inactive) | > 100 µM (inactive) | > 100 |  |  |  | 
10 | CN1NC(c2ccccc2)=C(C#N)C(=O)CC1c1ccccc1Cl (centres undefined) | > 100 µM (inactive) | > 100 µM (inactive) | > 100 µM (inactive) | > 100 µM (inactive) | > 100 µM (inactive) | > 100 µM (inactive) | > 100 µM (inactive) |  |  | > 100 µM (inactive) | > 100 µM (inactive) | > 100 µM (inactive) | > 100 µM (inactive) | > 100 µM (inactive) | > 100 µM (inactive) | 63.4 |  |  |  | 
11 | CC(=O)Nc1ccc(S(=O)(=O)N/N=C/c2cc(I)cc([N+](=O)[O-])c2O)cc1 |  | > 100 µM (inactive) | 30.3 µM (inactive) |  | 35.6 µM (inactive) | 37 µM (inactive) | > 100 µM (inactive) | 60.5 µM (inactive) | 30.3 µM (inactive) | 80.9 µM (inactive) | > 100 µM (inactive) | 32.7 µM (inactive) | > 100 µM (inactive) | > 100 µM (inactive) | 55.3 µM (inactive) | 75.5 |  |  |  | 
12 | O=[N+]([O-])c1ccc(-c2noc(-c3ccc(Cl)cc3)c2C2=NCCN2)cc1 | > 100 µM (inactive) | > 100 µM (inactive) | > 100 µM (inactive) | > 100 µM (inactive) | > 100 µM (inactive) | > 100 µM (inactive) | > 100 µM (inactive) | > 100 µM (inactive) | > 100 µM (inactive) | > 100 µM (inactive) | > 100 µM (inactive) | > 100 µM (inactive) |  | > 100 µM (inactive) | > 100 µM (inactive) | > 100 |  |  |  | 
13 | CCOC(=O)c1sc2c(C(=O)OCC)n3ccccc3c2c1N | 81.5 µM (inactive) | > 100 µM (inactive) | > 100 µM (inactive) |  | > 100 µM (inactive) | 50.9 µM (inactive) | > 100 µM (inactive) | 59.4 µM (inactive) | > 100 µM (inactive) | > 100 µM (inactive) | > 100 µM (inactive) | > 100 µM (inactive) | 52.7 µM (inactive) | 52.8 µM (inactive) | 31.7 µM (inactive) | > 100 |  |  |  | 
14 | Cc1ccc(S(=O)(=O)N/N=C/C(C)C)cc1 | > 100 µM (inactive) | > 100 µM (inactive) | > 100 µM (inactive) |  | > 100 µM (inactive) | > 100 µM (inactive) | > 100 µM (inactive) | > 100 µM (inactive) | > 100 µM (inactive) | > 100 µM (inactive) | > 100 µM (inactive) | > 100 µM (inactive) | > 100 µM (inactive) | > 100 µM (inactive) | > 100 µM (inactive) | > 100 |  |  |  | 
15 | C/C(=C\CC[C@]1(C)OC(C)(C)OC1CC/C(C)=C/CO[Si](c1ccccc1)(c1ccccc1)C(C)(C)C)CC/C=C/CO[Si](C)(C)C(C)(C)C (some centres undefined) | > 100 µM (inactive) |  | > 100 µM (inactive) |  | > 100 µM (inactive) | > 100 µM (inactive) | > 100 µM (inactive) | > 100 µM (inactive) | > 100 µM (inactive) | > 100 µM (inactive) | > 100 µM (inactive) | > 100 µM (inactive) | > 100 µM (inactive) | > 100 µM (inactive) | > 100 µM (inactive) | > 100 |  |  |  | 
16 | Cc1ccc(-c2ccc3c(c2)Sc2ccccc2O3)n1C | 0.167 µM (active) | 0.232 µM (active) | 1.32 µM (inactive) | 0.0675 µM (active) | 0.213 µM (active) |  | 0.257 µM (active) | 0.618 µM (active) | 0.0593 µM (active) | 0.524 µM (active) | 19.5 µM (inactive) | 0.822 µM (active) | 0.627 µM (active) | 3.57 µM (inactive) | 0.607 µM (active) | 0.143 | 1.13 µM (inactive) | 0.604 µM (active) | 0.206 µM (active) | 3.29 µM (inactive)
17 | COc1ccc(-c2cc(=O)c3c(O)c(OC)c(OC)c(OC)c3o2)cc1 [GARDENIN B] | 13.4 µM (inactive) | 7.83 µM (inactive) | > 100 µM (inactive) | 0.39 µM (active) | > 100 µM (inactive) |  | 0.92 µM (active) | > 100 µM (inactive) | 45.3 µM (inactive) | 17.6 µM (inactive) | > 100 µM (inactive) | > 100 µM (inactive) | 26.2 µM (inactive) | > 100 µM (inactive) | 25.4 µM (inactive) | 2.37 | > 100 µM (inactive) | 26.2 µM (inactive) | > 100 µM (inactive) | 16.2 µM (inactive)
18 | COC(=O)CCC(=O)N1Cc2cc(C)ccc2N(C(=O)CCC(=O)OC)Cc2cc(C)ccc21 | > 100 µM (inactive) | > 100 µM (inactive) | > 100 µM (inactive) | > 100 µM (inactive) | > 100 µM (inactive) | > 100 µM (inactive) | > 100 µM (inactive) | > 100 µM (inactive) | > 100 µM (inactive) | > 100 µM (inactive) |  | > 100 µM (inactive) | > 100 µM (inactive) | > 100 µM (inactive) |  | > 100 |  |  |  | 
